One compound from BindingDB's records for patent US10689345 (Mission Therapeutics Limited, 2020) can be followed below.

One may read the IC50 as the concentration that gives 50% inhibition.

The test deals with T1, Ubiquitin carboxyl-terminal hydrolase 30 (Homo sapiens, UniProt Q70CQ3).
T1 sequence (Q70CQ3 whole entry): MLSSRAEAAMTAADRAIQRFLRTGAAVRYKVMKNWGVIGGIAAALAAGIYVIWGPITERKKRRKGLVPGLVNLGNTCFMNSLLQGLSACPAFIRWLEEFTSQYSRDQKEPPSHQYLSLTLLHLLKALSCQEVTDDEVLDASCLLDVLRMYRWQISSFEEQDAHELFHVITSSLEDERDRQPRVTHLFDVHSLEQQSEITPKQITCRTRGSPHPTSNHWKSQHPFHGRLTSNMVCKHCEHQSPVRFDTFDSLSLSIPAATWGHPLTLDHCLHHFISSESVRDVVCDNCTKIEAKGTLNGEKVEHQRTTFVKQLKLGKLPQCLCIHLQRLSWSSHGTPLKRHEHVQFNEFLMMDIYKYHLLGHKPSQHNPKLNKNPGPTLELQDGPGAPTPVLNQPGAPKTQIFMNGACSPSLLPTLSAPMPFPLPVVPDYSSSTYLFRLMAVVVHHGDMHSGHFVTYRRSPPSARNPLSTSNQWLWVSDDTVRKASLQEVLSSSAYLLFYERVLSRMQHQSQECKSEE
Kind of test: Biochemical Fluorescence Intensity Kinetic Assay/Biochemical Fluorescence Intensity Assay. The procedure:
Buffer was optimised for optimal temperature, pH, reducing agent, salts, time of incubation, and detergent. […] Reactions were incubated at room temperature and read every 2 min for 120 min. Readings were performed on a Pherastar Plus (BMG Labtech). […] A typical 8-point dilution series would be 100, 30, 10, 3, 1, 0.3, 0.1, 0.03 μM final. […] Either 1 μl of 50% DMSO or diluted compound was added to the plate. USP30 was diluted in reaction buffer (40 mM Tris, pH 7.5, 0.005% Tween 20, 0.5 mg/ml BSA, 5 mM beta-mercaptoethanol) to the equivalent of 0.001 μl/well and 10 μl of diluted USP30 was added to the compound. Enzyme and compound were incubated for 30 min at room temp. […] Reactions were read immediately after addition of substrate and following a 2 h incubation at room temperature.

For the compound `CO[C@@H]1CN(C#N)C[C@H]1N(C)C(=O)c1ccc(-c2cnn(C)c2)cc1` [US10689345, Example 178], the IC50 entry is “in the range around 550 nM”.
